# Measurements: US11377425B1, “Small molecule modulators of IL-17” (LEO Pharma A/S, priority 2018, dated 2022)
# Molecular target: T1, human IL-17AA (Homo sapiens, UniProt Q16552)
# T1 construct: host or cells: HEK (human embryonic kidney) cells
# T1 sequence (Q16552 24-155): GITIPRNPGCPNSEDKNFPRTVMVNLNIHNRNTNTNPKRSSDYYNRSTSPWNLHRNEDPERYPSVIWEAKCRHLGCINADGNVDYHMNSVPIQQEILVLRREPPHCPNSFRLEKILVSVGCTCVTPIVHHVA
# Test: IL-8 release assay in human epithelial keratinocytes adult (HEKa)
# Assay type: cell-based
# Conditions: HEKa cells, 3 ng/mL HEK-human IL-17AA + 10 ng/mL human TNFalpha; read-out: Rel EC50 IL-8 release assay
# Outline: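 Adult human epidermal keratinocytes stimulated 68-72 h at 37 °C with 3 ng/mL HEK-derived human IL-17AA plus 10 ng/mL TNF-alpha (final) in the presence of compound; TNF-alpha alone defines 100% inhibition. Secreted IL-8 measured by HTRF as percent of controls; relative IC50/Emax from four-parameter fit (r^2>0.9), cytotoxicity by PrestoBlue.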
row,Compound,EC50 [nM]
1,"CCn1nccc1C(=O)N[C@H](C(=O)Nc1ccc(-n2c(C)c[nH]c2=O)cc1)C(C1CC1)C1CC1 [Example 370, N-[(1S)-1-(dicyclopropylmethyl)-2-[4-(4-methyl-2-oxo-1H-imidazol-3-yl)anilino]-2-oxo-ethyl]-2-ethyl-pyrazole-3-carboxamide]",> 1000
2,"CC(C)n1nccc1C(=O)N[C@H](C(=O)Nc1ccc(-c2ncn(C)c2C(F)(F)F)cc1)C1CCCCC1 [Example 371B, N-[(1S)-1-cyclohexyl-2-[4-[1-methyl-5-(trifluoromethyl)imidazol-4-yl]anilino]-2-oxo-ethyl]-2-isopropyl-pyrazole-3-carboxamide]",> 1000
3,"Cn1cncc1-c1ccc(NC(=O)[C@@H](NC(=O)c2ccnn2C)[C@@H]2CCCc3ccccc32)cc1 [Example 375, 2-Methyl-N-[(1S)-2-[4-(3-methylimidazol-4-yl)anilino]-2-oxo-1-[(1R)-tetralin-1-yl]ethyl]pyrazole-3-carboxamide]",> 1000
4,"Cn1cncc1-c1ccc(NC(=O)[C@@H](NC(=O)c2ccnn2C)[C@@H]2CCc3ccccc32)cc1 [Example 376, N-[(1S)-1-[(1R)-indan-1-yl]-2-[4-(3-methylimidazol-4-yl)anilino]-2-oxo-ethyl]-2-methyl-pyrazole-3-carboxamide]",> 1000
5,"Cn1cncc1-c1ccc(NC(=O)[C@@H](NC(=O)c2ccnn2C)[C@H]2CCc3ccccc32)cc1 [Example 377, N-[(1S)-1-[(1S)-indan-1-yl]-2-[4-(3-methylimidazol-4-yl)anilino]-2-oxo-ethyl]-2-methyl-pyrazole-3-carboxamide]",100 to 1000
6,"Cc1nccn1-c1ccc(NC(=O)[C@@H](NC(=O)c2ccnn2C)[C@@H]2CCCc3ccccc32)cc1 [Example 378, 2-methyl-N-[(1S)-2-[4-(2-methylimidazol-1-yl)anilino]-2-oxo-1-[(1R)-tetralin-1-yl]ethyl]pyrazole-3-carboxamide]",> 1000
7,"Cc1[nH]nc(C2CC2)c1-c1ccc(NC(=O)[C@@H](NC(=O)c2ccnn2[C@@H](C)CO)C(C2CC2)C2CC2)cc1 [Example 389, N-[(1S)-2,2-dicyclopropyl-1-[[4-(3-cyclopropyl-5-methyl-1H-pyrazol-4-yl)phenyl]carbamoyl]ethyl]-2-[(1S)-2-hydroxy-1-methyl-ethyl]pyrazole-3-carboxamide]",< 100
8,"CCCn1nccc1C(=O)N[C@H](C(=O)Nc1ccc(-c2c(C3CC3)n[nH]c2C)cc1)C(C1CC1)C1CC1 [Example 391, N-[(1S)-2,2-dicyclopropyl-1-[[4-(3-cyclopropyl-5-methyl-1H-pyrazol-4-yl)phenyl]carbamoyl]ethyl]-2-propyl-pyrazole-3-carboxamide]",< 100
9,"CCn1nccc1C(=O)N[C@H](C(=O)Nc1ccc(-c2c(C3CC3)n[nH]c2C)cc1)C(C1CC1)C1CC1 [Example 392, N-[(1S)-2,2-dicyclopropyl-1-[[4-(3-cyclopropyl-5-methyl-1H-pyrazol-4-yl)phenyl]carbamoyl]ethyl]-2-ethyl-pyrazole-3-carboxamide]",< 100
10,"CCc1n[nH]c(CC)c1-c1ccc(NC(=O)[C@@H](NC(=O)c2ccnn2CCCO)C(C2CC2)C2CC2)cc1 [Example 393, N-[(1S)-1-(dicyclopropylmethyl)-2-[4-(3,5-diethyl-1H-pyrazol-4-yl)anilino]-2-oxo-ethyl]-2-(3-hydroxypropyl)pyrazole-3-carboxamide]",< 100
11,"CCc1n[nH]c(CC)c1-c1ccc(NC(=O)[C@@H](NC(=O)c2ccnn2CC)C(C2CC2)C2CC2)cc1 [Example 396, N-[(1S)-1-(dicyclopropylmethyl)-2-[4-(3,5-diethyl-1H-pyrazol-4-yl)anilino]-2-oxo-ethyl]-2-ethyl-pyrazole-3-carboxamide]",< 100
12,"CCCn1nccc1C(=O)N[C@H](C(=O)Nc1ccc(-c2c(CC)n[nH]c2CC)cc1)C(C1CC1)C1CC1 [Example 397, N-[(1S)-1-(dicyclopropylmethyl)-2-[4-(3,5-diethyl-1H-pyrazol-4-yl)anilino]-2-oxo-ethyl]-2-propyl-pyrazole-3-carboxamide]",< 100
13,"CCc1n[nH]c(CC)c1-c1ccc(NC(=O)[C@@H](NC(=O)c2ccnn2C)C(C2CC2)C2CC2)cc1 [Example 398, N-[(1S)-1-(dicyclopropylmethyl)-2-[4-(3,5-diethyl-1H-pyrazol-4-yl)anilino]-2-oxo-ethyl]-2-methyl-pyrazole-3-carboxamide]",< 100
14,"Cc1[nH]ncc1-c1ccc(NC(=O)[C@@H](NC(=O)c2ccnn2C)C(c2ccccc2)c2ccccc2)cc1 [Example 400, N-[(1S)-1-Benzhydryl-2-[4-(3-methyl-1H-pyrazol-4-yl)anilino]-2-oxo-ethyl]-2-methyl-pyrazole-3-carboxamide]",100 to 1000

# Other lines, results leading:
row,EC50 [nM],Compound
1,100 to 1000,"CC(C)n1nccc1C(=O)N[C@H](C(=O)Nc1ccc(-c2c(C(F)(F)F)ncn2C)cc1)C1CCCCC1 [Example 371A, N-[(1S)-1-cyclohexyl-2-[4-[3-methyl-5-(trifluoromethyl)imidazol-4-yl]anilino]-2-oxo-ethyl]-2-isopropyl-pyrazole-3-carboxamide]"
2,> 1000,"Cc1nc[nH]c1-c1ccc(NC(=O)[C@@H](NC(=O)c2ccnn2C(C)C)C(C2CC2)C2CC2)cc1 [Example 379, N-[(1S)-1-(dicyclopropylmethyl)-2-[4-(4-methyl-1H-imidazol-5-yl)anilino]-2-oxo-ethyl]-2-isopropyl-pyrazole-3-carboxamide]"
3,100 to 1000,"CC(C)c1nc[nH]c1-c1ccc(NC(=O)[C@@H](NC(=O)c2ccnn2C(C)C)C(C2CC2)C2CC2)cc1 [Example 380, N-[(1S)-1-(dicyclopropylmethyl)-2-[4-(4-isopropyl-1H-imidazol-5-yl)anilino]-2-oxo-ethyl]-2-isopropyl-pyrazole-3-carboxamide]"
4,100 to 1000,"CC(C)n1nccc1C(=O)N[C@H](C(=O)Nc1ccc(-c2[nH]cnc2C2CC2)cc1)C(C1CC1)C1CC1 [Example 381, N-[(1S)-2,2-dicyclopropyl-1-[[4-(4-cyclopropyl-1H-imidazol-5-yl)phenyl]carbamoyl]ethyl]-2-isopropyl-pyrazole-3-carboxamide]"
5,100 to 1000,"Cc1cn[nH]c1-c1ccc(NC(=O)[C@@H](NC(=O)c2ccnn2C(C)C)C(C2CC2)C2CC2)cc1 [Example 382, N-[(1S)-1-(dicyclopropylmethyl)-2-[4-(4-methyl-1H-pyrazol-5-yl)anilino]-2-oxo-ethyl]-2-isopropyl-pyrazole-3-carboxamide]"
6,< 100,"Cc1[nH]nc(C2CC2)c1-c1ccc(NC(=O)[C@@H](NC(=O)c2ccnn2C(C)C)C(C2CC2)C2CC2)cc1 [Example 383, N-[(1S)-2,2-dicyclopropyl-1-[[4-(3-cyclopropyl-5-methyl-1H-pyrazol-4-yl)phenyl]carbamoyl]ethyl]-2-isopropyl-pyrazole-3-carboxamide]"
7,< 100,"Cc1[nH]nc(C(C)C)c1-c1ccc(NC(=O)[C@@H](NC(=O)c2ccnn2C(C)C)C(C2CC2)C2CC2)cc1 [Example 386, N-[(1S)-1-(dicyclopropylmethyl)-2-[4-(3-isopropyl-5-methyl-1H-pyrazol-4-yl)anilino]-2-oxo-ethyl]-2-isopropyl-pyrazole-3-carboxamide]"
8,< 100,"CC(C)c1n[nH]c(C(C)C)c1-c1ccc(NC(=O)[C@@H](NC(=O)c2ccnn2C(C)C)C(C2CC2)C2CC2)cc1 [Example 387, N-[(1S)-1-(dicyclopropylmethyl)-2-[4-(3,5-diisopropyl-1H-pyrazol-4-yl)anilino]-2-oxo-ethyl]-2-isopropyl-pyrazole-3-carboxamide]"
9,100 to 1000,"Cc1n[nH]c(C)c1-c1ccc(NC(=O)[C@@H](NC(=O)c2ccnn2CC(C)O)C(C2CC2)C2CC2)cc1 (stereo partly drawn) [Example 388, N-[(1S)-1-(dicyclopropylmethyl)-2-[4-(3,5-dimethyl-1H-pyrazol-4-yl)anilino]-2-oxo-ethyl]-2-(2-hydroxypropyl)pyrazole-3-carboxamide]"
10,< 100,"Cc1[nH]nc(C2CC2)c1-c1ccc(NC(=O)[C@@H](NC(=O)c2ccnn2[C@H](C)CO)C(C2CC2)C2CC2)cc1 [Example 390, N-[(1S)-2,2-dicyclopropyl-1-[[4-(3-cyclopropyl-5-methyl-1H-pyrazol-4-yl)phenyl]carbamoyl]ethyl]-2-[(1R)-2-hydroxy-1-methyl-ethyl]pyrazole-3-carboxamide]"
11,< 100,"CCc1n[nH]c(CC)c1-c1ccc(NC(=O)[C@@H](NC(=O)c2ccnn2[C@@H](C)CO)C(C2CC2)C2CC2)cc1 [Example 394, N-[(1S)-1-(dicyclopropylmethyl)-2-[4-(3,5-diethyl-1H-pyrazol-4-yl)anilino]-2-oxo-ethyl]-2-[(1S)-2-hydroxy-1-methyl-ethyl]pyrazole-3-carboxamide]"
12,< 100,"CCc1n[nH]c(CC)c1-c1ccc(NC(=O)[C@@H](NC(=O)c2ccnn2[C@H](C)CO)C(C2CC2)C2CC2)cc1 [Example 395, N-[(1S)-1-(dicyclopropylmethyl)-2-[4-(3,5-diethyl-1H-pyrazol-4-yl)anilino]-2-oxo-ethyl]-2-[(1R)-2-hydroxy-1-methyl-ethyl]pyrazole-3-carboxamide]"
13,< 100,"CCc1n[nH]c(CC)c1-c1ccc(NC(=O)[C@@H](NC(=O)c2ccnn2C(C)C)C(C2CC2)C2CC2)cc1 [Example 399, N-[(1S)-1-(dicyclopropylmethyl)-2-[4-(3,5-diethyl-1H-pyrazol-4-yl)anilino]-2-oxo-ethyl]-2-isopropyl-pyrazole-3-carboxamide]"
14,100 to 1000,"CC(C)c1ncn(C)c1-c1ccc(NC(=O)[C@@H](NC(=O)c2ccnn2C(C)C)C(C2CC2)C2CC2)cc1 [Example 401, N-[(1S)-1-(dicyclopropylmethyl)-2-[4-(5-isopropyl-3-methyl-imidazol-4-yl)anilino]-2-oxo-ethyl]-2-isopropyl-pyrazole-3-carboxamide]"
